Experimental data as given in patent publication US20250009745A1, “CDK INHIBITOR” (SHANGHAI QILU PHARMACEUTICAL RESEARCH AND DEVELOPMENT …, priority 2021, published 2025).
Like-named read-outs stand apart in the source and are kept apart here.

Key:
Assay in all cases: CDK enzymology experiment in vitro, capillary mobility shift assay (MSA)
Type in all cases: biochemical
[1] = molecular target: T1, CDK2 (Homo sapiens, UniProt P24941); details: read-out: CDK2 (nM) inhibitory IC50
T1 construct: purchased Carna Company
Experimental: (§1) CDK1/CDK2/CDK4/CDK6/CDK7/CDK9 were purchased from Carna Company; Carliper substrate CTD3/substrate 18/substrate 8 were purchased from Gil Biochemical Company; Dinaciclib/Palbociclib were purchased from Selleckchem Company; DMSO was purchased from Sigma Company; 384-well plates were purchased from Corning Company.
(§2) • (1) Preparation of 1×Kinase buffer. • (2) Preparation of compound concentration gradient: Test concentration of the test compound was started at 1 μM, 10 μM or 30 μM, 3-fold dilution, 10 concentrations, detected in duplicate. The test compound was diluted to a 100-fold final concentration with 100% DMSO solution in a 384 source plate. Liquid handler Echo 550 was used to transfer 250 nL of 100-fold final concentration of the compound to the target plate 384-well plate. […] The 384-well plate was centrifuged at 1000 rpm for 30 seconds, and shaken to mix uniformly. • (10) The conversion rate was read with Caliper EZ Reader.
(§3) Where, conversion %_sample is the readings of conversion rate of the sample; conversion %_min: the average value of negative control wells, representing the readings of conversion rate of wells without enzyme activity; conversion %_max: the average value of positive control wells, representing the readings of conversion rate of wells without compound inhibition.
(§4) Taking the log value of the concentration as the X-axis, and the percentage inhibition rate as the Y-axis, the dose-effect curve was fitted using the log(inhibitor) vs. response—Variable slope of the analysis software GraphPad Prism 5 so as to obtain the IC50 value of each compound on the enzyme activity.
(§5) Y=Bottom+(Top−Bottom)/(1+10^((Log IC50−X)*HillSlope)). Calculation formula: […]

[2] = molecular target: T2, CDK4 (Homo sapiens, UniProt P11802); details: read-out: CDK4 (nM) inhibitory IC50
T2 construct: purchased Carna Company
Experimental: as §1, §2, §3, §4, §5

[3] = molecular target: T3, CDK6 (Homo sapiens, UniProt Q00534)
T3 construct: purchased Carna Company
Experimental: as §1
as §2, with “The test compound was diluted to a 100-fold final concentration with 100% DMSO solution in a 384 source plate.” left out
as §3, §4, §5

[4] = read-out: CDK6 (nM) inhibitory IC50

T2 sequence (P11802 whole entry): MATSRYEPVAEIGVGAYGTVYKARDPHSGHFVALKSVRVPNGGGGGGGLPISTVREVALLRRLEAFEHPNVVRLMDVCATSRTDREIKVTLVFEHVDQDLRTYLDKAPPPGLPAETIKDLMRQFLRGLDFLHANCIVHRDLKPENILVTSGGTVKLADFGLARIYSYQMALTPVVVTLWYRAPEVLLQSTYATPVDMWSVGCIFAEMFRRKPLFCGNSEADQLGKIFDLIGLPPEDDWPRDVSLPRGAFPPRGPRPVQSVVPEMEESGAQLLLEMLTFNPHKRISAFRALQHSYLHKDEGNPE
T2 sequence (P30281 whole entry partner): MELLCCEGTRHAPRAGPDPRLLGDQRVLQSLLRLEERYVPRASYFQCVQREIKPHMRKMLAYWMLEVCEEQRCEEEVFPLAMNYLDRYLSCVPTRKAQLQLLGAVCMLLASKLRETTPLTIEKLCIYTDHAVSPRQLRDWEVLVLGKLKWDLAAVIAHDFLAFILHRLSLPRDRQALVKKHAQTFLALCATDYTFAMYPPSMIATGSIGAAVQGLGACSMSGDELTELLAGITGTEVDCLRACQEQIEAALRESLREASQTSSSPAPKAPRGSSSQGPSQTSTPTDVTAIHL
T3 sequence (Q00534 whole entry): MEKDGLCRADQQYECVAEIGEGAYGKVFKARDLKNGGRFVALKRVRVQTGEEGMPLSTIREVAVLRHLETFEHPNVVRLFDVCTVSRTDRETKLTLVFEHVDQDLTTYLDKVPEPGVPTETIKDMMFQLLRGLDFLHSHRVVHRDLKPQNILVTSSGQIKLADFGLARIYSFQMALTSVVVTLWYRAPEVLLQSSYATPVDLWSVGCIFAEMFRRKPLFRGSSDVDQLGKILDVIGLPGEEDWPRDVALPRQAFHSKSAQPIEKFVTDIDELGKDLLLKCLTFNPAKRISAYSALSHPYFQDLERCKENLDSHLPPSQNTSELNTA
T3 sequence (P30281 whole entry partner): as the sequence (P30281 whole entry partner) above

| IC50 [1] | IC50 [2] | IC50 [3, 4] | Compound | IC50 [3] |
| --- | --- | --- | --- | --- |
| 0.5 to 2.5 nM | 10 to 50 nM | 2.5 to 10 nM | C[C@@H]1CN(c2ccc(S(=O)(=O)N3CCC(Nc4ncc(C(F)(F)F)c(O[C@@H]5CCOC5)n4)CC3)cc2)C[C@H](C)N1 [Compound 210] |  |
| 0.5 to 2.5 nM | 0.5 to 2.5 nM | 0.5 to 2.5 nM | N#Cc1cnc(NC2CCN(S(=O)(=O)c3ccc(C4CCNCC4)cc3)CC2)nc1NC1CCCC1(F)F (centres unmarked) [Compound 138] |  |
| < 0.5 nM | 0.5 to 2.5 nM | 0.5 to 2.5 nM | O=S(=O)(c1ccc(C2CCCNC2)c(F)c1)N1CCC(Nc2ncc(C(F)(F)F)c(O[C@H]3CCOC3)n2)CC1 (some centres unmarked) [Compound 193] |  |
| 2.5 to 10 nM | 10 to 50 nM |  | Cn1cc(S(=O)(=O)N2CCC(Nc3ncc(C#N)c(N[C@@H]4CCC[C@@]4(C)O)n3)CC2)cn1 (racemic) [Example 19] |  |
| 10 to 50 nM | 100 to 1000 nM |  | CO[C@@H]1CCC[C@H]1Nc1nc(NC2CCN(S(=O)(=O)c3cnn(C)c3)CC2)ncc1C#N [Example 14] |  |
| 0.5 to 2.5 nM | 10 to 50 nM |  | Cn1cc(S(=O)(=O)N2CCC(Nc3ncc(C#N)c(C=C4CCCC4)n3)CC2)cn1 [Example 9, 4-(Cyclopentylidenemethyl)-2-((1-((1-methyl-1H-pyrazol-4-yl)sulfonyl)piperidin-4-yl)amino)pyrimidine-5-carbonitrile] |  |
| < 0.5 nM | 10 to 50 nM |  | NC(=O)Cn1cc(S(=O)(=O)N2CCC(Nc3ncc(C(F)(F)F)c(O[C@H]4CCOC4)n3)CC2)cn1 [Compound 134] |  |
| 10 to 50 nM | 10 to 50 nM |  | CS(=O)(=O)N1CCC(Nc2ncc(C#N)c(-c3ccccc3)n2)CC1 [Example 4, 2-((1-(Methylsulfonyl)piperidin-4-yl)amino)-4-phenylpyrimidine-5-carbonitrile] |  |
| 0.5 to 2.5 nM | 2.5 to 10 nM |  | Cn1cc(-c2ccc(S(=O)(=O)N3CCC(Nc4cc(N[C@H]5CCOC5)c(C#N)cn4)CC3)cc2)cn1 [Compound 166] |  |
| 2.5 to 10 nM | 10 to 50 nM |  | CN1CCN(Cc2ccc(S(=O)(=O)N3CCC(Nc4ncc(C#N)c(NC5CCCC5)n4)CC3)cc2)CC1 [Example 22, 4-(Cyclopentylamino)-2-((1-((4-((4-methylpiperazin-1-yl)methyl)phenyl)sulfonyl)piperidin-4-yl)amino)pyrimidine-5-carbonitrile] |  |
| 10 to 50 nM | 50 to 100 nM |  | Cn1cc(S(=O)(=O)N2CCC(Nc3cc(N[C@H]4CCOC4)c(C#N)cn3)CC2)cn1 [Compound 164] |  |
| 10 to 50 nM | 100 to 1000 nM |  | Cn1cc(S(=O)(=O)N2CCC(Nc3ncc(C#N)c(N[C@@H]4CCC[C@@]4(C)O)n3)CC2)cn1 (single isomer, unassigned) [Example 20] |  |
| 0.5 to 2.5 nM | 2.5 to 10 nM |  | CC(C)(O)c1ccc(S(=O)(=O)N2CCC(Nc3ncc(C#N)c(NC4CCCC4)n3)CC2)cc1 [Example 24, 4-(Cyclopentylamino)-2-((1-((4-(2-hydroxypropan-2-yl)phenyl)sulfonyl)piperidin-4-yl)amino)pyrimidine-5-carbonitrile] |  |
| 10 to 50 nM | 100 to 1000 nM |  | Cn1cc(S(=O)(=O)N2CC[C@@H](Nc3ncc(C(F)(F)F)c(O[C@H]4CCOC4)n3)[C@@H](F)C2)cn1 [Compound 128] |  |
| 2.5 to 10 nM | 10 to 50 nM |  | Cn1cc(S(=O)(=O)N2CCC(Nc3ncc(C#N)c(N[C@@H]4CC[C@H](O)C4)n3)CC2)cn1 (single isomer, unassigned) [Example 13] |  |

The next lines start with the molecule.

| Compound | IC50 [1] | IC50 [2] | IC50 [3, 4] | IC50 [3] |
| --- | --- | --- | --- | --- |
| Cn1cc(-c2ccc(S(=O)(=O)N3CCC(Nc4ncc(C#N)c(N[C@H]5CC[C@@H](O)C5)n4)CC3)cc2)cn1 (single isomer, unassigned) [Compound 86] | < 0.5 nM | 0.5 to 2.5 nM | 0.5 to 2.5 nM |  |
| Cn1cc(-c2ccc(S(=O)(=O)N3CCC(Nc4ncc(C#N)c(N[C@H]5CC[C@@H](O)C5)n4)CC3)cc2)cn1 (relative stereo) [Compound 62] | 0.5 to 2.5 nM | 0.5 to 2.5 nM | 0.5 to 2.5 nM |  |
| O=S(=O)(c1ccc(N2CC3CCC(C2)N3)cc1)N1CCC(Nc2ncc(C(F)(F)F)c(O[C@H]3CCOC3)n2)CC1 [Compound 181] | < 0.5 nM | 0.5 to 2.5 nM |  | 0.5 to 2.5 nM |
| Nc1ccc(S(=O)(=O)N2CCC(Nc3ncc(C(F)(F)F)c(O[C@H]4CCOC4)n3)CC2)cn1 [Compound 123] | < 0.5 nM | 2.5 to 10 nM | 10 to 50 nM |  |
| Cn1cc(-c2ccc(S(=O)(=O)N3CCC(Nc4ncc(C#N)c(N[C@H]5CCC[C@@H]5O)n4)CC3)cc2)cn1 [Compound 59] | 2.5 to 10 nM | 2.5 to 10 nM |  |  |
| Cn1cc(S(=O)(=O)N2CCC(Nc3ncc(C#N)c(O[C@@H]4CCC[C@H]4O)n3)CC2)cn1 (relative stereo) [Compound 68] | 2.5 to 10 nM | 10 to 50 nM |  |  |
| Cn1cc(S(=O)(=O)N2CCC(Nc3ncc(C#N)c(N[C@H]4CCC[C@H]4O)n3)CC2)cn1 [Compound 48] | 2.5 to 10 nM | 10 to 50 nM |  |  |
| CC(C)S(=O)(=O)N1CCC(Nc2ncc(C#N)c(NC3CCCC3)n2)CC1 [Compound 29] | 10 to 50 nM | 10 to 50 nM |  |  |
| C[C@@H]1COCCN1c1nc(NC2CCN(S(=O)(=O)c3cnn(C)c3)CC2)ncc1C#N [Compound 38] | 10 to 50 nM | 50 to 100 nM |  |  |
| Cn1cc(S(=O)(=O)N2CCC(Nc3ncc(C#N)c(NC4CCCC4(F)F)n3)CC2)cn1 (centres unmarked) [Compound 37] | 2.5 to 10 nM | 2.5 to 10 nM |  |  |
| Cn1cc(S(=O)(=O)N2CCC(Nc3ncc(C#N)c(NC4CCCCC4)n3)CC2)cn1 [Compound 79] | 2.5 to 10 nM | 10 to 50 nM |  |  |
| Cn1cc(S(=O)(=O)N2CCC(Nc3ncc(C#N)c(S(=O)(=O)C4CCCC4)n3)CC2)cn1 [Compound 97] | 0.5 to 2.5 nM | 10 to 50 nM |  |  |
| Cn1cc(S(=O)(=O)N2CCC(Nc3ncc(C(F)(F)F)c(O[C@@H]4CCOC4)n3)CC2)cn1 [Compound 88] | 0.5 to 2.5 nM | 10 to 50 nM |  |  |
| Cn1ccc(S(=O)(=O)N2CCC(Nc3ncc(C#N)c(NC4CCCC4)n3)CC2)n1 [Compound 33] | 2.5 to 10 nM | 10 to 50 nM |  |  |
| Cn1cc(S(=O)(=O)N2CCC(Nc3ncc(C#N)c(O[C@H]4CC[C@@H](O)C4)n3)CC2)cn1 (relative stereo) [Compound 58] | 0.5 to 2.5 nM | 10 to 50 nM |  |  |
| Cn1cc(S(=O)(=O)N2CCC(Nc3ncc(C#N)c(O[C@@H]4CCC[C@@H]4O)n3)CC2)cn1 (relative stereo) [Compound 65] | 2.5 to 10 nM | 10 to 50 nM |  |  |
| CN1CC[C@@H](Nc2nc(NC3CCN(S(=O)(=O)c4cnn(C)c4)CC3)ncc2C#N)C1 [Compound 71] | 2.5 to 10 nM | 10 to 50 nM |  |  |
| N#Cc1cnc(NC2CCN(S(=O)(=O)c3ccc(Br)cc3)CC2)nc1N[C@H]1CCOC1 [Compound 106] | 10 to 50 nM | 100 to 1000 nM |  |  |
| Cn1cc(S(=O)(=O)N2CCC(Nc3ncc(C#N)c(O[C@H]4CCC[C@@H]4O)n3)CC2)cn1 (single isomer, unassigned) [Compound 66] | 2.5 to 10 nM | 10 to 50 nM |  |  |
| Cn1cc(S(=O)(=O)N2CCC(Nc3ncc(C#N)c(N[C@H]4CC[C@H](O)C4)n3)CC2)cn1 (single isomer, unassigned) [Compound 52] | 2.5 to 10 nM | 10 to 50 nM |  |  |
| Cn1cc(S(=O)(=O)N2CCC(Nc3ncc(C#N)c(NC4CCOCC4)n3)CC2)cn1 [Compound 81] | 10 to 50 nM | 100 to 1000 nM |  |  |
| Cn1cc(S(=O)(=O)N2CCC(Nc3ncc(C#N)c(SC4CCCC4)n3)CC2)cn1 [Compound 96] | 0.5 to 2.5 nM | 2.5 to 10 nM |  |  |
| CN1CC[C@H](Nc2nc(NC3CCN(S(=O)(=O)c4cnn(C)c4)CC3)ncc2C#N)C1 [Compound 72] | 2.5 to 10 nM | 10 to 50 nM |  |  |
| C[C@@H](CO)Nc1nc(NC2CCN(S(=O)(=O)c3cnn(C)c3)CC2)ncc1C#N [Compound 69] | 10 to 50 nM | 100 to 1000 nM |  |  |
| Cn1cc(S(=O)(=O)N2CCC(Nc3ncc(C#N)c(NC4CC(F)(F)C4)n3)CC2)cn1 [Compound 78] | 2.5 to 10 nM | 10 to 50 nM |  |  |
| N#Cc1cnc(NC2CCN(S(=O)(=O)c3ccc(-c4cn[nH]c4)cc3)CC2)nc1N[C@H]1CCOC1 [Compound 105] | 0.5 to 2.5 nM | 10 to 50 nM |  |  |
| Cn1cc(S(=O)(=O)N2CCC(Nc3ncc(C#N)c(NC4CCC(F)(F)C4)n3)CC2)cn1 (centres unmarked) [Compound 41] | 2.5 to 10 nM | 10 to 50 nM |  |  |
| CN1CC[C@H](Oc2nc(NC3CCN(S(=O)(=O)c4cnn(C)c4)CC3)ncc2C#N)C1 [Compound 74] | 10 to 50 nM | 50 to 100 nM |  |  |
| Cn1cc(S(=O)(=O)N2CCC(Nc3ncc(C#N)c(N[C@H]4CCC[C@@H]4O)n3)CC2)cn1 [Compound 46] | 10 to 50 nM | 100 to 1000 nM |  |  |
